Assay results from patent US7642269B2, “Pyrrolo[3,2-B]pyridine derivatives and processes for the preparation thereof” (Yuhan Corporation, priority 2005, dated 2010).
pIC50: −log10 of the molar value. Counter-ions that a name gives are not always drawn.

Target: T1, H^+/K^+-ATPase (Sus scrofa, UniProt P19156)
T1 construct: used as an enzyme source of the in vitro enzyme reaction assay of proton pump; from tissue; host or cells: hog gastric fundic mucosa (membrane vesicles, lyophilized)
Test: Inhibitory effects on proton pump (H^+/K^+-ATPase) activity, hog gastric vesicles
Format: biochemical
Conditions: K^+ stimulated H^+/K^+-ATPase activity, hog gastric vesicle, Pi measured at 620 nm
Protocol: Preparation of Gastric Proton Pump Vesicles
The hog fundic regions containing parietal and peptic cells were scraped with slide-glass. The collected cells were suspended in 10 ml of 0.25M sucrose buffer and homogenized using a tight-fitting Teflon-glass homogenizer. The homogenate was centrifuged for 35 min at 8,000 rpm and the pellet was discarded. The supernatant was further centrifuged for 75 min at 25,000 rpm. The resulting pellets were re-suspended in the sucrose buffer (10 ml), and then the suspension was laid onto discontinuous density gradients consisting of 0.25M sucrose buffer and isolation medium containing 9% Ficoll (w/w). After being centrifuged for 3 hours and 15 minutes at 100,000×g, the material at the interface of sucrose buffer and Ficoll solution was collected and then centrifuged for 40 minutes at 100,000×g. The resulting pellets were re-suspended in 1 ml of 5 mM Hepes/Tris buffer (pH 6.1). This material was lyophilized and stored at −70° C. and used as an enzyme source of the in vitro enzyme reaction assay of proton pump.
1-2. Measurement of Inhibitory Effects on Proton Pump (H+/K+-ATPase) activity
The inhibitory effects of the compounds of the present invention against proton pump activity were evaluated in 96-well plate. In this assay, the K^+ specific H^+/K^+-ATPase activity was calculated based on the difference between the activity of H^+/K^+-ATPase activity with K^+ and without K^+ ion. In 96-well plate, 1% dimethylsulfoxide (DMSO) in buffer was added to negative and positive control groups and the diluted compounds of the present invention in buffer were added to test group. All assays were performed in 100 μl reaction volume at room temperature, and the hog gastric vesicle was kept in ice before use. At the beginning of the reaction, 10 μl of reaction buffer containing 1% DMSO was added to the negative and positive control groups and to each concentration of compounds in the test group. Then lyophilized vesicle in 5 mM Pipes/Tris buffer (pH 6.1) was pre-incubated in the presence of various concentrations of test compounds. After a 5 minute incubation, negative and positive buffers were respectively added to the previous reaction mixture. As the substrate, ATP was added to the reaction buffer, and incubated for 30 minutes at 37° C. Enzymatic activity was stopped by the addition of colorimetric reagent (2× malachite green, 1× ammonium molybdate, 1× polyvinyl alcohol, 2× H2O) and the amount of mono phosphate (Pi) in the reaction was measured at 620 nm using the micro plate reader (Genios Pro, TECAN). The difference between the Pi production with K^+ and without K^+ is taken as K^+ stimulated H^+/K^+-ATPase activity.

T1 sequence (P19156 2-1034 limits assumed): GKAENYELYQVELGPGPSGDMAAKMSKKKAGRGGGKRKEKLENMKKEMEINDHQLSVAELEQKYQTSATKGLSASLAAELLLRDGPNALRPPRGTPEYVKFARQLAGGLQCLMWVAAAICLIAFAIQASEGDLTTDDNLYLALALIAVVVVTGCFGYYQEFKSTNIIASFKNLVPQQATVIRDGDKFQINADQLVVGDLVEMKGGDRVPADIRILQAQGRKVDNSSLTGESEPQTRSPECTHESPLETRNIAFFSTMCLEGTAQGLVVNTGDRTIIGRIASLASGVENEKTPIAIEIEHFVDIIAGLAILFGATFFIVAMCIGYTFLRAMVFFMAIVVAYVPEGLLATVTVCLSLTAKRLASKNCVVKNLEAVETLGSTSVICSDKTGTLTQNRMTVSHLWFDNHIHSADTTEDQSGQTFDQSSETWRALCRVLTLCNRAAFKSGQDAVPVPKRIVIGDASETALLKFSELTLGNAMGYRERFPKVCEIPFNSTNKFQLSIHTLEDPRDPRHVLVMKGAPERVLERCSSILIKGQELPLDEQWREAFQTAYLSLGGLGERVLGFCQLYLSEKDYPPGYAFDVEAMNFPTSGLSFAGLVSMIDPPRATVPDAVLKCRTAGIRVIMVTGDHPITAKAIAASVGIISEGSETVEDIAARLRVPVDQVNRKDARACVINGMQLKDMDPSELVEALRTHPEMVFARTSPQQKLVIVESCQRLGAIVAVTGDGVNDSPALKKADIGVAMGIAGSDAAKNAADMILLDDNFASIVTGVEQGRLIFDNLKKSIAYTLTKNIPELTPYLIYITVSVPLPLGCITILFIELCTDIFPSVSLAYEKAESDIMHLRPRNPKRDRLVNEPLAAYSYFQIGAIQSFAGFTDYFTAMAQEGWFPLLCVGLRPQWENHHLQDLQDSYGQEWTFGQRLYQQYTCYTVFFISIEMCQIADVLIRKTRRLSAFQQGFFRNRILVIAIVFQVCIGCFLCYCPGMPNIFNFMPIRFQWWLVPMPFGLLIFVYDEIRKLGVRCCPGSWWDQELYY
T1 sequence (P18434 whole entry partner): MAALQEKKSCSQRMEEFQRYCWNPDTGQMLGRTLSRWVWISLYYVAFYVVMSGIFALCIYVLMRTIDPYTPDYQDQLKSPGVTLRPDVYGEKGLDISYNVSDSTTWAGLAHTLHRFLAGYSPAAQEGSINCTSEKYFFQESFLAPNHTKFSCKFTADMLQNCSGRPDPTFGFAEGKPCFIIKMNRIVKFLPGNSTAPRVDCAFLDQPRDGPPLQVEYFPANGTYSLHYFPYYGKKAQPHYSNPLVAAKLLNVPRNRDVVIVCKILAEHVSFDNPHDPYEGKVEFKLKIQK

pIC50 | SMILES
6.49 | Cc1c(C)n(CC2CC2)c2c(OCc3ccc4c(c3)OCO4)ccnc12 [Example 121, 7-(benzo[1,3]dioxol-5-ylmethoxy)-1-cyclopropylmethyl-2,3-dimethyl-1H-pyrrolo[3,2-b]pyridine hydrochloride]
5.68 | COCCn1c(C)c(C)c2nccc(NCc3ccc(F)cc3)c21 [Example 256, N-[1-(2-methoxyethyl)-2,3-dimethyl-1H-pyrrolo[3,2-b]pyridin-7-yl]-4-fluorobenzylamine hydrochloride]
6.27 | COCn1c(C)c(C)c2nccc(OCc3ccc(Cl)cc3Cl)c21 [Example 134, 7-(2,4-dichlorobenzyloxy)-1-methoxymethyl-2,3-dimethyl-1H-pyrrolo[3,2-b]pyridine hydrochloride]
5.88 | C=COCCn1c(C)c(C)c2nccc(OCc3ccc(F)cc3)c21 [Example 38, 7-(4-fluorobenzyloxy)-2,3-dimethyl-1-(2-vinyloxyethyl)-1H-pyrrolo[3,2-b]pyridine hydrochloride]
6.22 | Cc1ccc(Cn2c(C)c(C)c3nccc(OCc4ccc(C(F)(F)F)cc4)c32)cc1 [Example 200, 2,3-dimethyl-1-(4-methylbenzyl)-7-(4-trifluoromethylbenzyloxy)-1H-pyrrolo[3,2-b]pyridine hydrochloride]
7.22 | COCCn1c(C)c(C)c2nccc(OCc3ccc(F)cc3)c21 [Example 131, 7-(4-fluorobenzyloxy)-1-(2-methoxyethyl)-2,3-dimethyl-1H-pyrrolo[3,2-b]pyridine camphosulfonate]
6.21 | Cc1ccc(Cn2c(C)c(C)c3nccc(OCc4cccc(C)c4)c32)cc1 [Example 156, 2,3-dimethyl-1-(4-methylbenzyl)-7-(3-methylbenzyloxy)-1H-pyrrolo[3,2-b]pyridine hydrochloride]
6.28 | Cc1cccc(Cn2c(C)c(C)c3nccc(OCc4ccc(Cl)cc4)c32)c1 [Example 95, 7-(4-chlorobenzyloxy)-1-(3-methylbenzyl)-2,3-dimethyl-1H-pyrrolo[3,2-b]pyridine hydrochloride]
5.54 | Cc1c(C)n(Cc2ccncc2)c2c(OCc3ccc(Cl)cc3)ccnc12 [Example 80, 7-(4-chlorobenzyloxy)-2,3-dimethyl-1-(pyridin-4-ylmethyl)-1H-pyrrolo[3,2-b]pyridine hydrochloride]
5.85 | Cc1cccc(Cn2c(C)c(C)c3nccc(OCc4ccc5c(c4)OCO5)c32)c1 [Example 113, 7-(benzo[1,3]dioxol-5-ylmethoxy)-2,3-dimethyl-1-(3-methylbenzyl)-1H-pyrrolo[3,2-b]pyridine hydrochloride]
6.82 | CC(C)=CCn1c(C)c(C)c2nccc(OCc3ccc(Cl)cc3Cl)c21 [Example 135, 7-(2,4-dichlorobenzyloxy)-2,3-dimethyl-1-(3-methylbut-2-enyl)-1H-pyrrolo[3,2-b]pyridine hydrochloride]
5.99 | CCCn1c(C)c(C)c2nccc(OCc3cccc(C)c3)c21 [Example 153, 2,3-dimethyl-7-(3-methylbenzyloxy)-1-propyl-1H-pyrrolo[3,2-b]pyridine hydrochloride]
5.48 | Cc1[nH]c2c(OCc3ccc(Br)cc3)ccnc2c1C [Example 218, 7-(4-bromobenzyloxy)-2,3-dimethyl-1H-pyrrolo[3,2-b]pyridine]
6.34 | COC(=O)Cn1c(C)c(C)c2nccc(OCc3ccc(Cl)cc3Cl)c21 [Example 138, 7-(2,4-dichlorobenzyloxy)-1-methoxycarbonylmethyl-2,3-dimethyl-1H-pyrrolo[3,2-b]pyridine hydrochloride]
5.90 | Cc1c(C)n(CC2CNC(=O)O2)c2c(OCc3ccc(Cl)cc3)ccnc12 (stereo not drawn) [Example 81, 5-[7-(4-chlorobenzyloxy)-2,3-dimethyl-pyrrolo[3,2-b]pyridin-1-ylmethyl]-oxazolidin-2-one hydrochloride]
6.80 | Cc1c(C)n(CC2OCCO2)c2c(OCc3ccc(Cl)cc3)ccnc12 [Example 87, 7-(4-chlorobenzyloxy)-1-(1,3-dioxolan-2-ylmethyl)-2,3-dimethyl-1H-pyrrolo[3,2-b]pyridine hydrochloride]
6.24 | COCCn1c(C)c(C)c2nccc(OCc3cccc(C)c3)c21 [Example 157, 1-(2-methoxyethyl)-2,3-dimethyl-7-(3-methylbenzyloxy)-1H-pyrrolo[3,2-b]pyridine hydrochloride]

pIC50 | SMILES
6.64 | COc1ccc(Cn2c(C)c(C)c3nccc(OCc4ccc(F)cc4)c32)cc1 [Example 58, 7-(4-fluorobenzyloxy)-1-(4-methoxybenzyl)-2,3-dimethyl-1H-pyrrolo[3,2-b]pyridine hydrochloride]
7.52 | Cc1c(C)n(CC(C)C)c2c(OCc3ccc(Br)cc3)ccnc12 [Example 228, 7-(4-bromobenzyloxy)-1-isobutyl-2,3-dimethyl-1H-pyrrolo[3,2-b]pyridine hydrochloride]
5.33 | Cc1ccc(C)c(Cn2c(C)c(C)c3nccc(OCc4ccc(Cl)cc4)c32)c1 [Example 82, 7-(4-chlorobenzyloxy)-1-(2,5-dimethylbenzyl)-2,3-dimethyl-1H-pyrrolo[3,2-b]pyridine hydrochloride]
5.55 | Cc1c(C)n(CC2OCCO2)c2c(OCc3ccc4c(c3)OCO4)ccnc12 [Example 100, 7-(benzo[1,3]dioxol-5-ylmethoxy)-1-([1,3]-dioxolan-2-ylmethyl)-2,3-dimethyl-1H-pyrrolo[3,2-b]pyridine hydrochloride]
7.22 | COCCn1c(C)c(C)c2nccc(OCc3ccc(F)cc3)c21 [Example 133, 7-(4-fluorobenzyloxy)-1-(2-methoxyethyl)-2,3-dimethyl-1H-pyrrolo[3,2-b]pyridine hydrobromide]
5.92 | Cc1c(C)n(Cc2ccc(Cl)cc2)c2c(OCc3cc(F)cc(F)c3)ccnc12 [Example 183, 1-(4-chlorobenzyl)-7-(3,5-difluorobenzyloxy)-2,3-dimethyl-1H-pyrrolo[3,2-b]pyridine hydrochloride]
5.96 | COC(=O)c1ccc(Cn2c(C)c(C)c3nccc(OCc4ccc(F)cc4)c32)cc1 [Example 35, 4-[7-(4-fluorobenzyloxy)-2,3-dimethyl-pyrrolo[3,2-b]pyridin-1-ylmethyl]-benzoic acid methyl ester hydrochloride]
5.52 | C=CCn1c(C)c(C)c2nccc(OCc3ccccc3OCC)c21 [Example 164, 1-allyl-7-(2-ethoxybenzyloxy)-2,3-dimethyl-1H-pyrrolo[3,2-b]pyridine hydrochloride]
7.30 | COc1cccc(Cn2c(C)c(C)c3nccc(OCc4ccc(Cl)cc4)c32)c1 [Example 92, 7-(4-chlorobenzyloxy)-1-(3-methoxybenzyl)-2,3-dimethyl-1H-pyrrolo[3,2-b]pyridine hydrochloride]
5.94 | CCOc1ccccc1COc1ccnc2c(C)c(C)n(CCOC)c12 [Example 162, 7-(2-ethoxybenzyloxy)-1-(2-methoxyethyl)-2,3-dimethyl-1H-pyrrolo[3,2-b]pyridine hydrochloride]
6.82 | Cc1c(C)n(Cc2cccc(F)c2)c2c(OCc3ccc4c(c3)OCO4)ccnc12 [Example 116, 7-(benzo[1,3]dioxol-5-ylmethoxy)-1-(3-fluorobenzyl)-2,3-dimethyl-1H-pyrrolo[3,2-b]pyridine hydrochloride]
6.08 | Cc1c(C)n(CC2CC2)c2c(OCc3cc(F)cc(F)c3)ccnc12 [Example 180, 1-cyclopropylmethyl-7-(3,5-difluorobenzyloxy)-2,3-dimethyl-1H-pyrrolo[3,2-b]pyridine hydrochloride]
6.72 | Cc1c(C)n(Cc2cccc(F)c2)c2c(OCc3ccc(F)cc3)ccnc12 [Example 40, 1-(3-fluorobenzyl)-7-(4-fluorobenzyloxy)-2,3-dimethyl-1H-pyrrolo[3,2-b]pyridine hydrochloride]
7.05 | Cc1c(C)n(CC2CCC2)c2c(OCc3ccc(Br)cc3)ccnc12 [Example 227, 7-(4-bromobenzyloxy)-1-cyclobutylmethyl-2,3-dimethyl-1H-pyrrolo[3,2-b]pyridine hydrochloride]
7.30 | Cc1c(C)n(Cc2ccccc2)c2c(OCc3ccc(Cl)cc3Cl)ccnc12 [Example 136, 1-benzyl-7-(2,4-dichlorobenzyloxy)-2,3-dimethyl-1H-pyrrolo[3,2-b]pyridine hydrochloride]
7.30 | COCCn1c(C)c(C)c2nccc(OCc3ccc(F)cc3)c21 [Example 124, 7-(4-fluorobenzyloxy)-1-(2-methoxyethyl)-2,3-dimethyl-1H-pyrrolo[3,2-b]pyridine benzenesulfonate]
